Source: patent US8350028B2, “2-aminoquinolines” (Hofmann-La Roche Inc., priority 2008, dated 2013)

Biological target: T1, recombinant human 5-HT5A receptor (Homo sapiens, UniProt P47898)
T1 construct: expressed in transfected cells; host or cells: HEK-EBNA (Human Embryonic Kidney-EBNA) cells, transient cDNA expression; membranes
Assay: [3H]LSD radioligand binding assay
Settings: [3H]LSD (approximately 1 nM); membranes from HEK-EBNA cells transiently expressing 5-HT5A receptors; Ki calculated from IC50 using the Cheng-Prussoff equation
Method: A [^3H]LSD radioligand binding assay was used to determine the affinity of the compounds for the recombinant human 5-HT5A receptor, in membranes from transiently (cDNA) expressed 5-HT5A receptors in Human Embryonic Kidney-EBNA (HEK-EBNA) cells. Assay buffer consisted of Tris (50 mM) buffer containing 1 mM EGTA, 10 mM MgCl2 (pH 7.4) and 10 μM pargyline. The binding assay was carried out in 96-well-plates in the presence of [^3H]LSD (approximately 1 nM), approximately 2 μg/well of membrane protein, and 0.5 mg of Ysi-poly-1-lysine SPA beads in a final volume of 200 μl of buffer. Non-specific binding was defined using methiothepin 2 μM. Compounds were tested at 10 concentrations. All assays were conducted in duplicate and repeated at least two times. Assay plates were incubated for 120 min at room temperature before centrifugation. Bound ligand was determined using a Packard Topcount scintillation counter. IC50 values were calculated using a non-linear curve fitting program and Ki values calculated using the Cheng-Prussoff equation.

T1 sequence (P47898 whole entry): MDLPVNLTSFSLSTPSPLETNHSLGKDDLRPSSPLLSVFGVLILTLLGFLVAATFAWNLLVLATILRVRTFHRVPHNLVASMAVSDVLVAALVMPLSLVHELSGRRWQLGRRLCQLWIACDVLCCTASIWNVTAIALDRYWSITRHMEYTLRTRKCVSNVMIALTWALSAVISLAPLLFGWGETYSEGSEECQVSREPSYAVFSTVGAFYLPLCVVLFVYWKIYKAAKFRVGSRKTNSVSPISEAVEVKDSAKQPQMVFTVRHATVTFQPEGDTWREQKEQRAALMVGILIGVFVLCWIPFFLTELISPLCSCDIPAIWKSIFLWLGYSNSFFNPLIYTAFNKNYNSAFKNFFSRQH

**Q.** Which Ki does the source give for COCCN1CCC(NC(=O)Nc2ccc3nc(NCc4ccccc4OC)ccc3c2)CC1 [Example 23, 1-[2-(2-Methoxy-benzylamino)-quinolin-6-yl]-3-[1-(2-methoxy-ethyl)-piperidin-4-yl]-urea] here?
**A.** 6.4 nM

**Q.** With COc1ccccc1CNc1ccc2cc(NC(=O)NC3CCN(C(=O)CC(F)(F)F)CC3)ccc2n1 [Example 26] as the molecule, how does the Ki read?
**A.** 36.2 nM

**Q.** For COc1ccccc1CNc1ccc2cc(NC(=O)C3CC3)ccc2n1 [Example 32, Cyclopropanecarboxylic acid [2-(2-methoxy-benzylamino)-quinolin-6-yl]-amide], which Ki is on record?
**A.** 6.5 nM

**Q.** With COc1ccccc1CNc1ccc2cc(NC(=O)NC3CCN(C)CC3)ccc2n1 [Example 17, 1-[2-(2-Methoxy-benzylamino)-quinolin-6-yl]-3-(1-methyl-piperidin-4-yl)-urea] as the molecule, how does the Ki read?
**A.** 2.7 nM

**Q.** For COc1ccccc1CNc1ccc2cc(NS(=O)(=O)N3C[C@@H]4C[C@H]3CO4)ccc2n1 [Example 19, (1S,4S)-2-Oxa-5-aza-bicyclo[2.2.1]heptane-5-sulfonic acid [2-(2-methoxy-benzylamino)-quinolin-6-yl]-amide], which Ki is on record?
**A.** 8 nM

**Q.** With COc1ccc(CNc2ccc3cc(NC(=O)NC(C)C)ccc3n2)cc1 [Example 18, 1-Isopropyl-3-[2-(4-methoxy-benzylamino)-quinolin-6-yl]-urea] as the molecule, how does the Ki read?
**A.** 49.5 nM

**Q.** COc1ccccc1CNc1ccc2cc(NC(=O)CN3CCN(C)CC3)ccc2n1 [Example 33, N-[2-(2-Methoxy-benzylamino)-quinolin-6-yl]-2-(4-methyl-piperazin-1-yl)-acetamide] was tested. Which Ki did it give?
**A.** 33 nM

**Q.** How did the Ki turn out when Cc1ccc(CNc2ccc3cc(NC(=O)NC(C)C)ccc3n2)o1 [Example 21, 1-Isopropyl-3-{2-[(5-methyl-furan-2-ylmethyl)-amino]-quinolin-6-yl}-urea] was run?
**A.** 27.4 nM

**Q.** COCC(=O)N1CCC(NC(=O)Nc2ccc3nc(NCc4ccccc4OC)ccc3c2)CC1 [Example 31, 1-[1-(2-Methoxy-acetyl)-piperidin-4-yl]-3-[2-(2-methoxy-benzylamino)-quinolin-6-yl]-urea] was tested. Which Ki did it give?
**A.** 20.4 nM

**Q.** For Cc1ccc(CNc2ccc3cc(NC(=O)NC4CCN(C)CC4)ccc3n2)o1 [Example 29, 1-{2-[(5-Methyl-furan-2-ylmethyl)-amino]-quinolin-6-yl}-3-(1-methyl-piperidin-4-yl)-urea], which Ki is on record?
**A.** 12.5 nM

**Q.** COc1ccccc1CNc1ccc2cc(NS(=O)(=O)N(C)C)ccc2n1 [Example 10, N′-{2-[(2-methoxybenzyl)amino]quinolin-6-yl}-N,N-dimethylsulfamide] was tested. Which Ki did it give?
**A.** 17.1 nM

**Q.** With COc1ccccc1CNc1ccc2cc(NC(=O)NC(C)C)ccc2n1 [Example 14, 1-Isopropyl-3-[2-(2-methoxy-benzylamino)-quinolin-6-yl]-urea] as the molecule, how does the Ki read?
**A.** 3.3 nM

**Q.** With COc1ccccc1CNc1ccc2cc(NC(=O)NC3CCN(CCSC)CC3)ccc2n1 [Example 30, 1-[2-(2-Methoxy-benzylamino)-quinolin-6-yl]-3-[1-(2-methylsulfanyl-ethyl)-piperidin-4-yl]-urea] as the molecule, how does the Ki read?
**A.** 5.9 nM

**Q.** For COc1ccccc1CNc1ccc2cc(NC(=O)NC3CCN(CCF)CC3)ccc2n1 [Example 24, 1-[1-(2-Fluoro-ethyl)-piperidin-4-yl]-3-[2-(2-methoxy-benzylamino)-quinolin-6-yl]-urea], which Ki is on record?
**A.** 8.4 nM

**Q.** Which Ki does the source give for COc1ccccc1CNc1ccc2cc(NC(=O)NC3CCN(C(C)C)CC3)ccc2n1 [Example 25, 1-(1-Isopropyl-piperidin-4-yl)-3-[2-(2-methoxy-benzylamino)-quinolin-6-yl]-urea] here?
**A.** 6.7 nM

**Q.** Which Ki does the source give for COc1ccccc1CNc1ccc2cc(NS(=O)(=O)NC3CC3)ccc2n1 [Example 20, N-cyclopropyl-N′-{2-[(2-methoxybenzyl)amino]quinolin-6-yl}sulfamide] here?
**A.** 26.8 nM

**Q.** COc1ccccc1CNc1ccc2cc(NC(=O)NC3CCN(C(=O)CF)CC3)ccc2n1 [Example 27, 1-[1-(2-Fluoro-acetyl)-piperidin-4-yl]-3-[2-(2-methoxy-benzylamino)-quinolin-6-yl]-urea] was tested. Which Ki did it give?
**A.** 15.7 nM

**Q.** Which Ki does the source give for COc1ccccc1CNc1ccc2cc(NC(=O)NC3CCN(C4CC4)CC3)ccc2n1 [Example 28, 1-(1-Cyclopropyl-piperidin-4-yl)-3-[2-(2-methoxy-benzylamino)-quinolin-6-yl]-urea] here?
**A.** 6.8 nM
